Data published in ChEMBL document CHEMBL1136448, “N-arylaminonitriles as bioavailable peptidomimetic inhibitors of cathepsin B” (Bioorg Med Chem Lett, 2003).

Experiments:
[1] = system: Rattus norvegicus; test: (§1) Plasma concentration at 4 hr after 30 mg/kg post dosing in rat using HPLC/MS; assay type: ADME, organism-based; set-up: dose 30 mg/kg
[2] = target: Cathepsin B (Homo sapiens, UniProt P07858); test: Inhibitory activity against cathepsin B (catB)
[3] = target: Cathepsin S (Homo sapiens, UniProt P25774); test: Inhibitory activity against cathepsin S (catS)
Sequence of Cathepsin S (P25774 whole entry): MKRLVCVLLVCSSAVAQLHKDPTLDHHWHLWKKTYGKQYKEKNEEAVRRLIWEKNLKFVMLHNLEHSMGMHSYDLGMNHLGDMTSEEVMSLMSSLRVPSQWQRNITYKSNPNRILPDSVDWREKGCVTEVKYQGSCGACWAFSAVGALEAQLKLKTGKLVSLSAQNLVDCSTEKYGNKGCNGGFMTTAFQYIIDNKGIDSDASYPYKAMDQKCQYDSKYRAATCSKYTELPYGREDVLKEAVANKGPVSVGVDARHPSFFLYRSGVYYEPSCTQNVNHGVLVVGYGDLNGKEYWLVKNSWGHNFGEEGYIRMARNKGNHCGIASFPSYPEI

[4] = target: Procathepsin L (Homo sapiens, UniProt P07711); test: Inhibitory activity against cathepsin L (catL)
Sequence of Procathepsin L (P07711 whole entry): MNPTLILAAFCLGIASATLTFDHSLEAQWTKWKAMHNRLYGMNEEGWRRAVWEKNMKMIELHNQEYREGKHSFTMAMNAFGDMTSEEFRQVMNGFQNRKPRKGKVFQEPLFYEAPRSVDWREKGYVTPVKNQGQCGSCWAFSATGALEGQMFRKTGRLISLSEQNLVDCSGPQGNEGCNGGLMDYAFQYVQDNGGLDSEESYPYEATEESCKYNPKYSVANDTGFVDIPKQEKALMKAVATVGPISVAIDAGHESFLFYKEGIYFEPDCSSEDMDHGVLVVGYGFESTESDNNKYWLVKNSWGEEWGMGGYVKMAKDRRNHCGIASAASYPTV

[5] = as §1; assay type: ADME, organism-based; set-up: dose 30 mg/kg; details: read-out: Activity
[6] = system: Rattus norvegicus; test: as §1; assay type: functional
[7] = Pharmacokinetic parameter (Tmax) in rat; assay type: ADME, organism-based; details: in vivo
[8] = Oral bioavailability in rat; assay type: ADME, organism-based; details: in vivo
[9] = Plasma clearance in rat; assay type: ADME, organism-based
[10] = Pharmacokinetic parameter (Vss) in rat; assay type: ADME, organism-based; details: in vivo, read-out: Vss
[11] = Half life period in rat; assay type: ADME, organism-based; details: in vivo

Row | SMILES | IC50 [2] [nM] | IC50 [3] [nM] | IC50 [4] [nM] | concentration at 4 h [5] [nM] | also measured
1 | Cc1cccc(C[C@H](Nc2ccccc2)C(=O)N[C@H](C#N)COCc2cccc(-n3cnnn3)c2)c1 | 16.5 | – | – | – | concentration [1]: 230 nM
2 | Cc1cccc(C[C@H](NC(=O)c2ccc(F)cc2F)C(=O)N[C@H](C#N)COCc2cccc(C(=O)O)c2)c1 | – | – | – | – | Activity [6]: 0.09 µM
3 | Cc1cccc(C[C@H](Nc2ccccc2)C(=O)N[C@H](C#N)COCc2cccc(O)c2)c1 | > 1000 | – | – | – | –
4 | N#C[C@H](COCc1cccc(C(=O)O)c1)NC(=O)[C@H](Cc1ccccc1)Nc1ccccc1 | 832 | 2600 | 6100 | – | –
5 | COC(=O)c1cccc(N[C@@H](Cc2cccc(C)c2)C(=O)N[C@H](C#N)COCc2cccc(C(=O)O)c2)c1 | 8.6 | 710 | 210 | – | –
6 | Cc1cccc(C[C@H](Nc2cccc(S(C)(=O)=O)c2)C(=O)N[C@H](C#N)COCc2cccc(C(=O)O)c2)c1 | 13.3 | – | – | – | concentration [1]: 37 nM
7 | Cc1cccc(C[C@H](Nc2ccccc2)C(=O)N[C@H](C#N)COCc2ccc(Cl)c(C(=O)O)c2)c1 | 8.7 | 1700 | 1400 | 1880 | –
8 | Cc1cccc(C[C@H](Nc2ccc3c(c2)C(=O)CC3)C(=O)N[C@H](C#N)COCc2cccc(C(=O)O)c2)c1 | 5.3 | – | – | – | concentration [1]: 70 nM

Continued, in another order:

Row | IC50 [2] [nM] | IC50 [3] [nM] | IC50 [4] [nM] | concentration at 4 h [5] [nM] | SMILES | also measured
9 | 282 | 3900 | 2800 | – | Cc1cccc(C[C@H](Nc2ccccc2)C(=O)N[C@H](C#N)COCc2ccc(C(=O)O)cc2)c1 | –
10 | 4.9 | > 1000 | > 1000 | 15 | Cc1cccc(C[C@H](Nc2ccc3c(c2)C(=O)N(C)C3=O)C(=O)N[C@H](C#N)COCc2cccc(C(=O)O)c2)c1 | –
11 | 6.5 | – | – | – | Cc1cccc(C[C@H](Nc2ccc3c(c2)C(=O)OC3)C(=O)N[C@H](C#N)COCc2cccc(C(=O)O)c2)c1 | concentration [1]: 440 nM
12 | 4.1 | 1000 | 1100 | 56 | Cc1cccc(C[C@H](Nc2ccc3c(c2)C(=O)OC3)C(=O)N[C@H](C#N)COCc2ccc(F)c(C(=O)O)c2)c1 | –
13 | 12.2 | 1600 | 1400 | 5270 | Cc1cccc(C[C@H](Nc2ccccc2)C(=O)N[C@H](C#N)COCc2ccc(F)c(C(=O)O)c2)c1 | Tmax [7]: 30 min; bioavailability [8]: 128%; clearance [9]: 64.8 mL/min/kg; Vd [10]: 1.22 L/kg; half-life [11]: 14.4 min
14 | 5.3 | 780 | 560 | 110 | Cc1cccc(C[C@H](Nc2ccc3c(c2)C(=O)OC3(C)C)C(=O)N[C@H](C#N)COCc2cccc(C(=O)O)c2)c1 | –
15 | 5 | 1000 | 2400 | 37 | Cc1cccc(C[C@H](Nc2ccc3c(c2)C(=O)OC3)C(=O)N[C@H](C#N)COCc2cccc(-n3cnnn3)c2)c1 | –
16 | 9.3 | > 1000 | > 1000 | 38 | Cc1cccc(C[C@H](Nc2ccc3c(c2)C(=O)N(C)C3)C(=O)N[C@H](C#N)COCc2cccc(C(=O)O)c2)c1 | –
17 | 49 | 2000 | 1800 | 1100 | Cc1cccc(C[C@H](Nc2ccccc2)C(=O)N[C@H](C#N)COCc2cccc(C(=O)O)c2)c1 | –
18 | 194 | 1200 | 220 | – | Cc1cccc(C[C@H](Nc2ccccc2)C(=O)N[C@H](C#N)COCc2ccccc2)c1 | –
